Source: patent US11578013B2, “Nitrification inhibitors” (Lincoln University, priority 2020, dated 2023)
Structures can show the parent of a compound that is named as a salt.

Tests used:
[1] = system: nitrification in the soil; assay: Laboratory soil incubation, Templeton sandy loam with synthetic cow urine, nitrate-N; conditions: for nitrate-N concentration in the soil compared with urine alone or urine+DMSO / reducing the nitrification rate compared with DCD: day 30; for % reduction by NI (nitrate-N): vs urine alone, 30 days; for reducing the nitrification rate compared with DCD: compound at 2 kg/ha vs DCD at 10 kg/ha; for Nitrate-N: 30 days of incubation
Description: A Templeton sandy loam was used in this experiment. 500 g of soil (dry weight basis) was packed into a pottle. 50 mL of synthetic cow urine with an N concentration of 7 g N/L (comprising about 87% urea-N and 13% glycine-N) was applied to the soil (equivalent to 700 kg N/ha on weight basis, assuming bulk density of 1 g/cm^3 in the top 10 cm of soil). The 700 kg N/ha application was used to simulate the urine-N application rate under a typical dairy cow urine patch in a grazed pasture.
Control treatments also added to soil were: • urine alone (50 mL); • DMSO (equivalent to 0.9 mL/500 g soil)+urine (50 mL) to determine the effect of DMSO on nitrification rate; • water alone (50 mL) (simulating areas of the soil where no urine was deposited).
Pottles were covered with lids with breathing holes to allow for gas exchange during incubation. Pottles were incubated at 12° C. Soil moisture content was maintained at field capacity by adjusting on weight basis twice a week.
Soil samples were collected and were then thoroughly mixed and subsamples were extracted in a potassium chloride solution and analysed for mineral-N. Soil moisture content was also determined. Samples were taken at 30 days after the start of incubation. […]

nitrification = assay: Table 1 summary: compounds found to work or not work as nitrification inhibitors, Inhib(%); design: concentration or dose not given beside the values; conditions: test and rate not given
Description: The phenotypic screening involved assessing the nitrification inhibition potency of the selected 5000 compounds against a key ammonia oxidizing bacterium responsible for ammonia oxidation in the soil, Nitrosomonas europaea, in 96-well microtiter plates. N. europaea cells were grown in the presence of an ammonium source, and the potential of putative nitrification inhibitors to inhibit the production of nitrite (NO2) was measured relative to untreated cells.
A summary of selected compounds initially found to either work or not work as nitrification inhibitors is detailed in Table 1 below.

[2] = system: N2O emissions in the soil; assay: Field study of nitrous oxide emissions, static gas chamber method, urine-treated pasture soil; conditions: for nitrous oxide reductions compared with DCD: sprayed onto urine-treated pasture soil
Description: (§1) This study was conducted on the Lincoln University Research Dairy Farm, and the soil was a Templeton sandy loam with established perennial ryegrass (Lolium perenne) and white clover (Trifolium repens.) pasture. Metal rings (500 mm diameter and 200 mm height) were inserted into the ground. A water trough sitting on top of the metal rings allowed the placement of static chambers sitting on top of the water trough to provide a gas-tight seal to allow N2O gas sampling.
Synthetic urine with a nitrogen concentration of 7 g N/L was applied to the soil plots confined within the metal rings at the equivalent rate of 700 kg N/ha. […] The plots were irrigated with irrigation water in accordance with local dairy farming practice.
(§2) The gas chamber (500 mm diameter and 120 mm height) was constructed of a metal cylinder insulated with 2.5 cm thick polystyrene foam to avoid heating of the atmosphere in the chamber during sampling. During periods of N2O measurement, the edge of the chamber was placed inside the small water trough which was mounted around the top of each metal ring for gas sampling. At each sampling time, the chamber was placed on top of the soil ring for a total of 40 minutes, and 3 samples, 20 minutes apart, were taken using a syringe through a rubber septum on top of the gas chamber. Samples were taken twice weekly. Each sampling was carried out during the middle of the day between 12:00 h to 14:00 h (Di et al., 2007). The N2O concentration in the samples was analysed using a gas chromatograph (SRI8610C with an Electron Capture Detector (ECD) (SRI Instruments, USA) linked to a Gilson 222XL autosampler (Gilson, France)
as §1, with “To determine the effect of treating the soil with 2-ethynyl-5-methoxypyridine on nitrous oxide emissions under field soil conditions, a field study was conducted using the static gas chamber method. This” for “This”
Synthetic urine with a nitrogen concentration of 7 g N/L was applied to the soil plots confined within the metal rings at the equivalent rate of 700 kg N/ha. 196.25 mg or 39.2 mg of 2-ethynyl-5-methoxypyridine were dissolved in 2 mL DMSO, mixed with 1000 mL of water, and then sprayed on to the mini-plots at the rates of 196.25 mg/plot and 39.2 mg/plot, equivalent to 10 kg/ha and 2 kg/ha, respectively. The plots were irrigated with irrigation water in accordance with local dairy farming practice.
as §2, with “France).” for “France)”
To determine the effect of treating the soil with 3-ethynylpyridine 1-oxide on nitrous oxide emissions under field soil conditions, a field study was conducted using the static gas chamber method. […]

C#Cc1cccnn1 [3-Ethynylpyridazine]
nitrate-N concentration in the soil compared with urine alone or urine+DMSO ([1]; 0.5 kg/ha): lower nitrate-N concentrations
% reduction by NI (nitrate-N) ([1]; 0.5 kg/ha): 91%
nitrate-N concentration in the soil compared with urine alone or urine+DMSO ([1]; 1 kg/ha): lower nitrate-N concentrations
% reduction by NI (nitrate-N) ([1]; 1 kg/ha): 98%
nitrate-N concentration in the soil compared with urine alone or urine+DMSO ([1]; 2 kg/ha): significantly lower nitrate-N concentrations
% reduction by NI (nitrate-N) ([1]; 2 kg/ha): 95%
reducing the nitrification rate compared with DCD [1]: more effective than DCD
Nitrate-N ([1]; urine + inhibitor at 0.5 kg/ha): 35.5 mg N/kg soil
Nitrate-N ([1]; urine + inhibitor at 1 kg/ha): 10.3 mg N/kg soil
Nitrate-N ([1]; urine + inhibitor at 2 kg/ha): 10.5 mg N/kg soil

C#Cc1cnccn1 [2-ethynylpyrazine]
reducing the nitrification rate compared with DCD [1]: more effective than DCD

C#Cc1c[nH]c(=O)[nH]c1=O [5-ethynyl-2,4(1H,3H)-pyrimidinedione, reference compound]
Inhib(%) (nitrification): 0%

C#Cc1cc[n+](O)cc1 [4-ethynylpyridine 1-oxide, reference compound]
Inhib(%) (nitrification): 18%

C#Cc1ccncn1 [4-Ethynylpyrimidine]
Inhib(%) (nitrification): 100%
nitrate-N concentration in the soil compared with urine alone or urine+DMSO ([1]; 1 kg/ha): lower nitrate-N concentrations
nitrate-N concentration in the soil compared with urine alone or urine+DMSO ([1]; 2 kg/ha): significantly lower nitrate-N concentrations
reducing the nitrification rate compared with DCD [1]: more effective than DCD

C#Cc1cnc(C#C)nc1 [2,5-diethynylpyrimidine, reference compound]
Inhib(%) (nitrification): 60%

C#Cc1ccc(C#C)cc1 [1,4-diethynylbenzene]
Inhib(%) (nitrification): 100%
nitrate-N concentration in the soil compared with urine alone or urine+DMSO ([1]; 2 kg/ha): significantly lower nitrate-N concentrations
reducing the nitrification rate compared with DCD [1]: more effective than DCD

C#Cc1ncccn1 [2-Ethynyl 1,3 Diazine, 2-Ethynylpyrimidine]
Inhib(%) (nitrification): 94%
% reduction by NI (nitrate-N) ([1]; 0.5 kg/ha): 96%
% reduction by NI (nitrate-N) ([1]; 1 kg/ha): 98%
% reduction by NI (nitrate-N) ([1]; 2 kg/ha): 84%
reducing the nitrification rate compared with DCD [1]: more effective than DCD
Nitrate-N ([1]; urine + inhibitor at 0.5 kg/ha): 17.5 mg N/kg soil
Nitrate-N ([1]; urine + inhibitor at 1 kg/ha): 9.1 mg N/kg soil
Nitrate-N ([1]; urine + inhibitor at 2 kg/ha): 31.8 mg N/kg soil
% reduction by NI (N2O emissions) ([2]; 2 kg/ha, vs urine alone): 91%
nitrous oxide reductions compared with DCD [2]: greater than that by DCD
N2O emissions ([2]; urine + inhibitor at 2 kg/ha): 1.2 kg N2O—N/ha
N2O emissions ([2]; urine + inhibitor at 10 kg/ha): 0.53 kg N2O—N/ha

C#CC1CCN(C(C)=O)CC1 [1-(4-ethynyl-1-piperidinyl)ethanone, reference compound]
Inhib(%) (nitrification): 0%

C#Cc1ccc(OC)cn1 [2-ethynyl-5-methoxypyridine]
Inhib(%) (nitrification): 100%
nitrate-N concentration in the soil compared with urine alone or urine+DMSO ([1]; 0.5 kg/ha): lower nitrate-N concentrations
% reduction by NI (nitrate-N) ([1]; 0.5 kg/ha): 93%
nitrate-N concentration in the soil compared with urine alone or urine+DMSO ([1]; 1 kg/ha): lower nitrate-N concentrations
% reduction by NI (nitrate-N) ([1]; 1 kg/ha): 97%
nitrate-N concentration in the soil compared with urine alone or urine+DMSO ([1]; 2 kg/ha): significantly lower nitrate-N concentrations
% reduction by NI (nitrate-N) ([1]; 2 kg/ha): 78%
reducing the nitrification rate compared with DCD [1]: more effective than DCD
Nitrate-N ([1]; urine + inhibitor at 0.5 kg/ha): 28.6 mg N/kg soil
Nitrate-N ([1]; urine + inhibitor at 1 kg/ha): 13.8 mg N/kg soil
Nitrate-N ([1]; urine + inhibitor at 2 kg/ha): 100 mg N/kg soil
nitrous oxide reductions compared with DCD [2]: greater than that by DCD
N2O emissions ([2]; urine + inhibitor at 2 kg/ha): 2 kg N2O—N/ha
N2O emissions ([2]; urine + inhibitor at 10 kg/ha): 2 kg N2O—N/ha

C#Cc1ccc(OCCCCC)cc1 [1-ethynyl-4-pentoxybenzene, reference compound]
Inhib(%) (nitrification): 2%

C#CC1CCNCC1 [4-ethynylpiperidine hydrochloride, reference compound]
Inhib(%) (nitrification): 0%

C#Cc1cncnc1 [3-Ethynyl 1,5 Diazine, 5-Ethynylpyrimidine]
Inhib(%) (nitrification): 95%
% reduction by NI (nitrate-N) ([1]; 0.5 kg/ha): 70%
% reduction by NI (nitrate-N) ([1]; 1 kg/ha): 97%
% reduction by NI (nitrate-N) ([1]; 2 kg/ha): 84%
reducing the nitrification rate compared with DCD [1]: more effective than DCD
Nitrate-N ([1]; urine + inhibitor at 0.5 kg/ha): 118.1 mg N/kg soil
Nitrate-N ([1]; urine + inhibitor at 1 kg/ha): 13.3 mg N/kg soil
Nitrate-N ([1]; urine + inhibitor at 2 kg/ha): 31.6 mg N/kg soil
nitrous oxide reductions compared with DCD [2]: greater than that by DCD
N2O emissions ([2]; urine + inhibitor at 2 kg/ha): 0.89 kg N2O—N/ha
N2O emissions ([2]; urine + inhibitor at 10 kg/ha): 0.92 kg N2O—N/ha

C#Cc1ccc(OC(F)(F)F)cc1 [1-ethynyl-4-(trifluoromethoxy)benzene, reference compound]
Inhib(%) (nitrification): 8%

C#Cc1ccc(OC)nc1 [5-ethynyl-2-methoxypyridine]
Inhib(%) (nitrification): 100%
nitrate-N concentration in the soil compared with urine alone or urine+DMSO ([1]; 2 kg/ha): lower nitrate-N concentrations

C#Cc1ccc(OCC)cc1 [1-ethoxy-4-ethynylbenzene]
Inhib(%) (nitrification): 100%
nitrate-N concentration in the soil compared with urine alone or urine+DMSO ([1]; 2 kg/ha): significantly lower nitrate-N concentrations
reducing the nitrification rate compared with DCD [1]: more effective than DCD

C#Cc1ccc(O)cc1 [4-ethynylphenol, reference compound]
Inhib(%) (nitrification): 0%

C#Cc1ccc(C#C)nc1 [2,5-diethynylpyridine]
Inhib(%) (nitrification): 100%
nitrate-N concentration in the soil compared with urine alone or urine+DMSO ([1]; 2 kg/ha): lower nitrate-N concentrations
